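Tested at 5 concentrations; 48 h exposure; 96-well plates; endpoints linearly interpolated, else capped at highest concentration. TGI is the concentration that stops growth completely.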
Key:
Assay in all cases: DTP human tumour cell line panel, 48 h
HS 578T breast = tested on: HS 578T breast
SK-MEL-28 melanoma = tested on: SK-MEL-28 melanoma
A549 NSCLC = tested on: A549 NSCLC
MDA-N = tested on: MDA-N
CAKI-1 renal = tested on: CAKI-1 renal
HT29 colon = tested on: HT29 colon
MALME-3M melanoma = tested on: MALME-3M melanoma
UACC-257 melanoma = tested on: UACC-257 melanoma
KM12 colon = tested on: KM12 colon
UACC-62 melanoma = tested on: UACC-62 melanoma
786-0 renal = tested on: 786-0 renal
SW-620 colon = tested on: SW-620 colon
OVCAR-4 ovarian = tested on: OVCAR-4 ovarian
MDA-MB-435 = tested on: MDA-MB-435
M14 melanoma = tested on: M14 melanoma
SR leukemia = tested on: SR leukemia
TK-10 renal = tested on: TK-10 renal
ACHN renal = tested on: ACHN renal
NCI-H460 lung = tested on: NCI-H460 lung

## CN(C)C(=O)C1CCN(Cc2c[nH]c3ccccc23)CC1
HS 578T breast
  TGI: > 100 µM
SK-MEL-28 melanoma
  TGI: > 100 µM
A549 NSCLC
  TGI: > 100 µM
MDA-N
  TGI: > 100 µM
CAKI-1 renal
  TGI: > 100 µM
HT29 colon
  TGI: > 100 µM
MALME-3M melanoma
  TGI: > 100 µM
UACC-257 melanoma
  TGI: > 100 µM
KM12 colon
  TGI: > 100 µM
UACC-62 melanoma
  TGI: > 100 µM
786-0 renal
  TGI: > 100 µM
SW-620 colon
  TGI: 30.7 µM
OVCAR-4 ovarian
  TGI: > 100 µM
MDA-MB-435
  TGI: > 100 µM
M14 melanoma
  TGI: > 100 µM
SR leukemia
  TGI: > 100 µM
TK-10 renal
  TGI: > 100 µM
ACHN renal
  TGI: > 100 µM

## CC(=O)Oc1c(C)c2c(c3ccccc13)OC(C)(C)C2
HS 578T breast
  TGI: 53.9 µM
SK-MEL-28 melanoma
  TGI: 32.9 µM
A549 NSCLC
  TGI: 33.9 µM
MDA-N
  TGI: 24.9 µM
CAKI-1 renal
  TGI: 40.3 µM
HT29 colon
  TGI: 35 µM
MALME-3M melanoma
  TGI: 30 µM
NCI-H460 lung
  TGI: 34.2 µM
UACC-257 melanoma
  TGI: 24.6 µM
KM12 colon
  TGI: 27.6 µM
UACC-62 melanoma
  TGI: 30.3 µM
786-0 renal
  TGI: 34.3 µM
SW-620 colon
  TGI: 35.8 µM
OVCAR-4 ovarian
  TGI: 30 µM
MDA-MB-435
  TGI: 33.2 µM
M14 melanoma
  TGI: 30.9 µM
SR leukemia
  TGI: 52.8 µM
TK-10 renal
  TGI: 32.9 µM
ACHN renal
  TGI: 31 µM

## CN(C)Cc1cc(N=Nc2ccc(Cl)cc2)ccc1O
HS 578T breast
  TGI: 31.3 µM
SK-MEL-28 melanoma
  TGI: 29.6 µM
A549 NSCLC
  TGI: 29.4 µM
MDA-N
  TGI: 42.9 µM
CAKI-1 renal
  TGI: 32.2 µM
HT29 colon
  TGI: 26.4 µM
MALME-3M melanoma
  TGI: 27.2 µM
NCI-H460 lung
  TGI: 26.7 µM
UACC-257 melanoma
  TGI: 32.7 µM
KM12 colon
  TGI: 34.5 µM
UACC-62 melanoma
  TGI: 30.1 µM
786-0 renal
  TGI: 25.8 µM
SW-620 colon
  TGI: 30.7 µM
OVCAR-4 ovarian
  TGI: 45.7 µM
MDA-MB-435
  TGI: 30.3 µM
M14 melanoma
  TGI: 53.1 µM
SR leukemia
  TGI: 39.8 µM
TK-10 renal
  TGI: 28.4 µM
ACHN renal
  TGI: 29.3 µM

## CC(NC(NC(C)C12CC3CC(CC(C3)C1)C2)=C(C(Cl)=C(Cl)Cl)[N+](=O)[O-])C12CC3CC(CC(C3)C1)C2 (stereo not given)
HS 578T breast
  TGI: 53.9 µM
SK-MEL-28 melanoma
  TGI: > 75.5 µM
A549 NSCLC
  TGI: 25.7 µM
MDA-N
  TGI: > 100 µM
CAKI-1 renal
  TGI: > 100 µM
HT29 colon
  TGI: 18.1 µM
MALME-3M melanoma
  TGI: > 95.6 µM
NCI-H460 lung
  TGI: 21.8 µM
UACC-257 melanoma
  TGI: > 54.6 µM
KM12 colon
  TGI: > 100 µM
UACC-62 melanoma
  TGI: > 100 µM
786-0 renal
  TGI: > 100 µM
SW-620 colon
  TGI: 62.1 µM
OVCAR-4 ovarian
  TGI: > 100 µM
MDA-MB-435
  TGI: > 100 µM
M14 melanoma
  TGI: 48.7 µM
SR leukemia
  TGI: > 100 µM
TK-10 renal
  TGI: > 100 µM
ACHN renal
  TGI: > 100 µM

## C=C1CC(COc2ccc3c(C)cc(=O)oc3c2)(c2ccccc2)OC1=O (stereo not given)
HS 578T breast
  TGI: > 27 µM
SK-MEL-28 melanoma
  TGI: 8.37 µM
A549 NSCLC
  TGI: 25 µM
MDA-N
  TGI: 5.78 µM
CAKI-1 renal
  TGI: 3.55 µM
HT29 colon
  TGI: 2.96 µM
MALME-3M melanoma
  TGI: 1.9 µM
NCI-H460 lung
  TGI: 23.5 µM
UACC-257 melanoma
  TGI: 3.9 µM
KM12 colon
  TGI: > 27.7 µM
UACC-62 melanoma
  TGI: 3.05 µM
786-0 renal
  TGI: 2.79 µM
SW-620 colon
  TGI: 2.31 µM
MDA-MB-435
  TGI: 8.03 µM
M14 melanoma
  TGI: 2.66 µM
SR leukemia
  TGI: > 31.6 µM
TK-10 renal
  TGI: 3.42 µM
ACHN renal
  TGI: 7.3 µM

## O=C(Nc1nc(C23CC4CC(CC(C4)C2)C3)cs1)c1cc2c(ccc3ccccc32)oc1=O
HS 578T breast
  TGI: > 100 µM
SK-MEL-28 melanoma
  TGI: > 100 µM
A549 NSCLC
  TGI: > 100 µM
MDA-N
  TGI: > 100 µM
CAKI-1 renal
  TGI: > 100 µM
HT29 colon
  TGI: > 100 µM
MALME-3M melanoma
  TGI: > 100 µM
NCI-H460 lung
  TGI: > 100 µM
UACC-257 melanoma
  TGI: > 100 µM
KM12 colon
  TGI: > 100 µM
786-0 renal
  TGI: > 100 µM
SW-620 colon
  TGI: > 100 µM
OVCAR-4 ovarian
  TGI: > 100 µM
MDA-MB-435
  TGI: > 100 µM
SR leukemia
  TGI: > 100 µM
TK-10 renal
  TGI: > 100 µM
ACHN renal
  TGI: > 100 µM

## COc1ccc2c(-c3ccc(O)cc3)c(Oc3ccc(Cl)cc3)c(=O)oc2c1
HS 578T breast
  TGI: 16.8 µM
SK-MEL-28 melanoma
  TGI: 23.1 µM
A549 NSCLC
  TGI: > 29.5 µM
MDA-N
  TGI: 23.2 µM
CAKI-1 renal
  TGI: 10.2 µM
HT29 colon
  TGI: > 38.1 µM
MALME-3M melanoma
  TGI: 13.8 µM
NCI-H460 lung
  TGI: 19.8 µM
UACC-257 melanoma
  TGI: 41 µM
KM12 colon
  TGI: 22.6 µM
UACC-62 melanoma
  TGI: 18.6 µM
786-0 renal
  TGI: > 35.1 µM
SW-620 colon
  TGI: > 32 µM
OVCAR-4 ovarian
  TGI: 25.4 µM
MDA-MB-435
  TGI: 25.7 µM
M14 melanoma
  TGI: 17.9 µM
SR leukemia
  TGI: > 28.5 µM
TK-10 renal
  TGI: > 22.7 µM
ACHN renal
  TGI: > 37.7 µM

## COC1(CC[C@H](C)COC2OC(CO)C(O)C(O)C2O)O[C@H]2C[C@H]3[C@@H]4CC=C5C[C@@H](OC6OC(CO)C(O)C(OC7OC(CO)C(O)C(O)C7O)C6OC6OC(C)C(O)C(O)C6O)CC[C@]5(C)[C@H]4CC[C@]3(C)[C@H]2[C@@H]1C (stereo not given in full)
HS 578T breast
  TGI: 24.6 µM
SK-MEL-28 melanoma
  TGI: 6.74 µM
A549 NSCLC
  TGI: 7.27 µM
MDA-N
  TGI: 27 µM
CAKI-1 renal
  TGI: 10.4 µM
HT29 colon
  TGI: > 21.8 µM
MALME-3M melanoma
  TGI: 6.11 µM
NCI-H460 lung
  TGI: 11.6 µM
UACC-257 melanoma
  TGI: 22 µM
KM12 colon
  TGI: 3.91 µM
UACC-62 melanoma
  TGI: > 39.2 µM
786-0 renal
  TGI: 5.29 µM
SW-620 colon
  TGI: 5.87 µM
OVCAR-4 ovarian
  TGI: 14.9 µM
MDA-MB-435
  TGI: 4.24 µM
SR leukemia
  TGI: > 100 µM
TK-10 renal
  TGI: > 69.7 µM
ACHN renal
  TGI: 36.3 µM

## O=C(CCOS(=O)(=O)CF)N1CCN(C(=O)CCOS(=O)(=O)CF)CC1
HS 578T breast
  TGI: > 100 µM
SK-MEL-28 melanoma
  TGI: > 100 µM
A549 NSCLC
  TGI: > 100 µM
MDA-N
  TGI: > 100 µM
CAKI-1 renal
  TGI: > 100 µM
HT29 colon
  TGI: > 100 µM
MALME-3M melanoma
  TGI: > 100 µM
NCI-H460 lung
  TGI: > 100 µM
UACC-257 melanoma
  TGI: > 100 µM
KM12 colon
  TGI: > 100 µM
UACC-62 melanoma
  TGI: > 100 µM
786-0 renal
  TGI: > 100 µM
SW-620 colon
  TGI: > 100 µM
OVCAR-4 ovarian
  TGI: > 100 µM
MDA-MB-435
  TGI: > 100 µM
M14 melanoma
  TGI: > 100 µM
SR leukemia
  TGI: > 100 µM
TK-10 renal
  TGI: > 100 µM
ACHN renal
  TGI: > 88.7 µM

## O=C(Nn1cnn2c(=O)c3ccccc3nc2c1=O)c1ccccc1
HS 578T breast
  TGI: > 100 µM
SK-MEL-28 melanoma
  TGI: > 100 µM
A549 NSCLC
  TGI: > 100 µM
MDA-N
  TGI: > 100 µM
CAKI-1 renal
  TGI: > 100 µM
HT29 colon
  TGI: > 100 µM
MALME-3M melanoma
  TGI: > 100 µM
NCI-H460 lung
  TGI: > 100 µM
UACC-257 melanoma
  TGI: > 100 µM
KM12 colon
  TGI: > 100 µM
UACC-62 melanoma
  TGI: > 100 µM
786-0 renal
  TGI: > 100 µM
SW-620 colon
  TGI: > 100 µM
OVCAR-4 ovarian
  TGI: > 100 µM
MDA-MB-435
  TGI: > 100 µM
M14 melanoma
  TGI: > 100 µM
SR leukemia
  TGI: > 100 µM
TK-10 renal
  TGI: > 100 µM
ACHN renal
  TGI: > 100 µM

## Cc1c(-c2ccccc2)c(C#N)c2nnn(-c3cccc(Cl)c3)c(=O)n12
HS 578T breast
  TGI: > 100 µM
SK-MEL-28 melanoma
  TGI: > 100 µM
MDA-N
  TGI: > 100 µM
CAKI-1 renal
  TGI: > 100 µM
HT29 colon
  TGI: > 100 µM
MALME-3M melanoma
  TGI: > 100 µM
NCI-H460 lung
  TGI: > 100 µM
UACC-257 melanoma
  TGI: > 100 µM
KM12 colon
  TGI: > 100 µM
UACC-62 melanoma
  TGI: > 100 µM
786-0 renal
  TGI: 86.6 µM
SW-620 colon
  TGI: > 100 µM
OVCAR-4 ovarian
  TGI: > 100 µM
MDA-MB-435
  TGI: > 100 µM
SR leukemia
  TGI: > 100 µM
TK-10 renal
  TGI: > 100 µM
ACHN renal
  TGI: > 100 µM

## COCCOCCOCCOc1ccc(C(C#N)N(CCc2ccccc2)C(=O)c2cc(C(=O)N(CCc3ccccc3)C(C#N)c3ccc(OCCOCCOCCOC)cc3)cc(C(=O)N(CCc3ccccc3)C(C#N)c3ccc(OCCOCCOCCOC)cc3)c2)cc1 (stereo not given)
HS 578T breast
  TGI: > 100 µM
SK-MEL-28 melanoma
  TGI: > 100 µM
A549 NSCLC
  TGI: > 100 µM
MDA-N
  TGI: > 100 µM
HT29 colon
  TGI: > 100 µM
MALME-3M melanoma
  TGI: > 100 µM
NCI-H460 lung
  TGI: > 100 µM
UACC-257 melanoma
  TGI: > 100 µM
KM12 colon
  TGI: > 100 µM
UACC-62 melanoma
  TGI: > 100 µM
786-0 renal
  TGI: > 100 µM
SW-620 colon
  TGI: > 100 µM
OVCAR-4 ovarian
  TGI: > 100 µM
MDA-MB-435
  TGI: > 100 µM
M14 melanoma
  TGI: > 100 µM
SR leukemia
  TGI: > 100 µM
TK-10 renal
  TGI: > 100 µM
ACHN renal
  TGI: > 100 µM

Reference: PubChem BioAssay (NCI)
